Laboratory results as given in patent publication US9732037B2, “2-aminopyridine-based selective neuronal nitric oxide synthase inhibitors” (Northwestern University, priority 2013, dated 2017).

Key:
Assay type in all cases: biochemical
bovine eNOS = bovine eNOS (Bos taurus (Bovine), UniProt P29473); test: NOS inhibition assay, eNOS; conditions: for Ki: bovine eNOS, KM 1.7 μM, Ki = IC50/(1 + [S]/KM); for Selectivity e/n: ratio of Ki (eNOS) to nNOS
Description: (§1) Nitric oxide formation from NOS was monitored using literature techniques.

murine iNOS = murine iNOS (Mus musculus (Mouse), UniProt P29477); test: NOS inhibition assay, iNOS; conditions: for Ki: murine iNOS, KM 8.2 μM, Ki = IC50/(1 + [S]/KM); for Selectivity i/n: ratio of Ki (iNOS) to nNOS
Description: as §1

rat nNOS = rat nNOS (Rattus norvegicus (Rat), UniProt P29476); test: NOS inhibition assay, nNOS; conditions: KM 1.3 μM, Ki = IC50/(1 + [S]/KM)
Description: as §1

SMILES	Ki (bovine eNOS)	Selectivity e/n (bovine eNOS)	Ki (murine iNOS)	Selectivity i/n (murine iNOS)	Ki (rat nNOS)
Cc1cc(N)nc(CO[C@H]2CN[C@H](COCCOCc3cccc(F)c3)C2)c1 [Compound 12]	7960 nM	52	5860 nM	38	153 nM
Cc1cc(N)nc(COc2cccc(OCc3ccncc3)c2)c1 [Compound 2]	62800 nM	–	27100 nM	–	616 nM
Cc1cc(N)nc(COc2cccc(OCC3CCNCC3)c2)c1 [Compound 3]	28000 nM	–	17100 nM	–	117 nM
Cc1cc(N)nc(COCCOC[C@H]2C[C@@H](OCc3cc(C)cc(N)n3)CN2)c1 [Compound 11]	9300 nM	46	13600 nM	68	199 nM
Cc1cc(N)nc(CO[C@H]2CN[C@@H](COCCOCc3cccc(F)c3)C2)c1 [Compound 13]	11700 nM	35	8470 nM	26	330 nM
Cc1cc(N)nc(COc2cccc(OCCCN)c2)c1 [Compound 1]	18000 nM	–	8470 nM	–	60 nM

Stronger by Ki (bovine eNOS), values ahead:

Ki (bovine eNOS)	Selectivity e/n (bovine eNOS)	Ki (murine iNOS)	Selectivity i/n (murine iNOS)	Ki (rat nNOS)	SMILES
3470 nM	102	5590 nM	164	34 nM	Cc1cc(N)nc(COC[C@H]2C[C@@H](OCc3cc(C)cc(N)n3)CN2)c1 [Compound 7]
2360 nM	76	1900 nM	61	31 nM	Cc1cc(N)nc(COC[C@@H]2C[C@H](OCc3cc(C)cc(N)n3)CN2)c1 [Compound 8]
2180 nM	84	2270 nM	87	26 nM	Cc1cc(N)nc(COC[C@@H]2C[C@@H](OCc3cc(C)cc(N)n3)CN2)c1 [Compound 6]
6250 nM	89	2320 nM	33	70 nM	Cc1cc(N)nc(COCCOC[C@@H]2C[C@@H](OCc3cc(C)cc(N)n3)CN2)c1 [Compound 10]
6930 nM	693	2950 nM	295	10 nM	Cc1cc(N)nc(COC[C@H]2C[C@H](OCc3cc(C)cc(N)n3)CN2)c1 [Compound 9]
